Test results from patent US20050282887A1, “Novel sulfamate and sulfamide derivatives useful for the treatment of epilepsy and related disorders” (priority 2004, published 2005).

Assays:
CF-1 male albino mice = test: Maximal Electroshock Test (MES), anticonvulsant activity; format: in vivo
Method: Anticonvulsant activity was determined using the MES test, run according to the procedure described in detail below. Swinyard E A, Woodhead J H, White H S, Franklin M R. Experimental selection, quantification, and evaluation of anticonvulsants. In Levy R H, et al., eds. Antiepileptic Drugs. 3rd ed. New York: Raven Press, 1989:85-102
CF-1 male albino mice (25-35 g) were fasted for 16 hours before testing. Mice were randomly selected into control and test groups, with the animals dosed with vehicle or test compound, at varying concentrations, respectively. On the study date, at 30 minutes prior to shock, the mice were orally dosed with vehicle (0.5% methylcellulose) or test compound (100-300 mg/kg). Seizures were induced by trans-corneal electric shock using a 60-Hz alternating current, 50 mA, delivered for 0.2 sec. The mice in the test groups were subjected to electrical stimulus at time intervals between 15 minutes and 4 hours following administration of test compound. […] The test was complete when the entire course of the convulsion has been observed (typically, less than 1 minute after electrical stimulation), and the mice were then immediately euthanized by carbon dioxide inhalation.
Abolition of the full body tonic extensor component of the seizure was taken as the endpoint of the test. […] The ED50 value of the test compound (calculated when appropriate) was the calculated dose required to block the hind limb tonic-extensor component of the MES-induced seizure in 50% of the rodents tested. A probit analysis was used to calculate the ED50 and 95% fiducial limits (FL).
Representative compounds of the present invention were tested according to the procedure described above, with results as listed in Table 4 below. Results are listed as number of mice with full body tonic extension prevented/total number of mice tested @ a given time (at a given test compound dosage level).

carbonic anhydrase = conditions: cited from earlier work

For `NS(=O)(=O)NCC1COc2ccccc2O1` (racemic) [Compound #1, N-(2,3-Dihydro-benzo[1,4]dioxin-2-ylmethyl)-sulfamide], the “MES Activity: number of mice with full body tonic extension prevented/total number of mice tested” value (CF-1 male albino mice; @ 1 h, 300 mg/kg oral) was 2/4 @ 1 h (300 mg/kg).

With `CN(C)S(=O)(=O)NCC1COc2ccccc2O1` (racemic) [Compound #6, N-(2,3-Dihydro-benzo[1,4]dioxin-2-ylmethyl)-N′,N′ dimethylsulfamide] the “MES Activity: number of mice with full body tonic extension prevented/total number of mice tested” value (CF-1 male albino mice; @ 0.5 h, 300 mg/kg oral) was 4/5 @ 0.5 h (300 mg/kg) and the melting point was 76 to 78 °C.

For `CN(CC1COc2ccccc2O1)S(N)(=O)=O` (racemic) [Compound #7, N-(2,3-Dihydro-benzo[1,4]dioxin-2-ylmethyl)-N-methylsulfamide], the “MES Activity: number of mice with full body tonic extension prevented/total number of mice tested” value (CF-1 male albino mice; @ 0.5 h, 300 mg/kg oral) was 3/3 @ 0.5 h (300 mg/kg) and the melting point was 97 to 98 °C.

For `NS(=O)(=O)NCC1Oc2ccccc2O1` [Compound #2, (Benzo[1,3]dioxol-2-ylmethyl)sulfamide], the “MES Activity: number of mice with full body tonic extension prevented/total number of mice tested” value (CF-1 male albino mice; @ 2 h, 100 mg/kg oral) was 4/4 @ 2 h (100 mg/kg).

For `NS(=O)(=O)NCC1COc2ccccc2OC1` [Compound #3, ((3,4-Dihydro-2H-benzo[b][1,4]dioxepin-3-yl)methyl)sulfamide], the “MES Activity: number of mice with full body tonic extension prevented/total number of mice tested” value (CF-1 male albino mice; @ 1 h, 300 mg/kg oral) was 2/3 @ 1 h (300 mg/kg).

For `NS(=O)(=O)NC[C@H]1COc2ccccc2O1` [Compound #4, (2S)-(−)-N-(2,3-Dihydro-benzo[1,4]dioxin-2-ylmethyl)-sulfamide], the “MES Activity: number of mice with full body tonic extension prevented/total number of mice tested” value (CF-1 male albino mice; @ 1 h, 300 mg/kg oral) was 5/5 @ 1 h (300 mg/kg).

For `NS(=O)(=O)NC[C@H]1COc2cc(Cl)ccc2O1` [Compound #8, (2S)-(−)-N-(6-Chloro-2,3-dihydro-benzo[1,4]dioxin-2-ylmethyl)-sulfamide], the “MES Activity: number of mice with full body tonic extension prevented/total number of mice tested” value (CF-1 male albino mice; @ 3 h, 100 mg/kg oral) was 3/5 @ 3 h (100 mg/kg).

In the case of `NS(=O)(=O)NCC1CCc2ccccc2O1` (stereo not drawn) [Compound #10, Chroman-2-ylmethylsulfamide], the “MES Activity: number of mice with full body tonic extension prevented/total number of mice tested” value (CF-1 male albino mice; @ 1 h, 100 mg/kg oral) is reported as 1/5 @ 1 h (100 mg/kg) and the melting point is reported as 100 to 101 °C.

`NS(=O)(=O)OCC1CCc2ccccc2O1` (stereo not drawn) [Compound #11, Chroman-2-ylmethylsulfamate] showed a melting point of 87 to 90 °C.

For `NS(=O)(=O)OC[C@H]1COc2cc(Cl)ccc2O1` [Compound #12, Sulfamic acid, 6-chloro-2,3-dihydro-benzo[1,4]dioxin-2-ylmethyl ester], the “MES Activity: number of mice with full body tonic extension prevented/total number of mice tested” value (CF-1 male albino mice; @ 4 h, 100 mg/kg oral) was 3/5 @ 4 h (100 mg/kg) and the melting point was 113 to 116 °C.

For `NS(=O)(=O)NCCC1COc2ccccc2O1` (stereo not drawn) [Compound #16, 2-(2,3-Dihydro-benzo[1,4]dioxin-2-yl)-ethylsulfamide], the “MES Activity: number of mice with full body tonic extension prevented/total number of mice tested” value (CF-1 male albino mice; @ 0.5 h, 300 mg/kg oral) was 5/5 @ 0.5 h (300 mg/kg) and the melting point was 101 to 103 °C.

With `Cc1ccc2c(c1)O[C@@H](CNS(N)(=O)=O)CO2` [Compound #19, (2S)-(−)-N-(7-Methyl-2,3-dihydro-benzo[1,4]dioxin-2-ylmethyl)-sulfamide] the “MES Activity: number of mice with full body tonic extension prevented/total number of mice tested” value (CF-1 male albino mice; @ 0.5 h, 300 mg/kg oral) was 5/5 @ 0.5 h (300 mg/kg).

For `NS(=O)(=O)NC[C@H]1COc2cc(Cl)c(Cl)cc2O1` [Compound #29, (2S)-(−)-N-(6,7 Dichloro-2,3-dihydro-benzo[1,4]dioxin-2-ylmethyl)-sulfamide], the “MES Activity: number of mice with full body tonic extension prevented/total number of mice tested” value (CF-1 male albino mice; @ 4 h, 100 mg/kg oral) was 3/5 @ 4 h (100 mg/kg) and the melting point was 119 to 121 °C.

In the case of `Nc1ccc2c(c1)O[C@@H](CNS(N)(=O)=O)CO2` [Compound #36, (2S)-(−)-N-(7-Amino-2,3-dihydro-benzo[1,4]dioxin-2-ylmethyl)-sulfamide], the “MES Activity (result in words)” value (CF-1 male albino mice; @ 100 and 300 mg/kg oral) is reported as “Inactive @ 100 and 300 mg/kg”.

In the case of `CC1(C)O[C@@H]2[C@@H](CO[C@@]3(COS(N)(=O)=O)OC(C)(C)O[C@@H]23)O1` [Topiramate], the carbonic anhydrase inhibition (carbonic anhydrase) is listed as “single digit micromolar”.

With `NS(=O)(=O)NC[C@H]1COc2ccc(Cl)cc2O1` [compound 14, (2S)-(−)-N-(7-Chloro-2,3-dihydro-benzo[1,4]dioxin-2-ylmethyl)-sulfamide] the “MES Activity: number of mice with full body tonic extension prevented/total number of mice tested” value (CF-1 male albino mice; @ 4 h, 100 mg/kg oral) was 3/5 @ 4 h (100 mg/kg).

In the case of `NS(=O)(=O)NC[C@H]1COc2ccc([N+](=O)[O-])cc2O1` [compound 18, (2S)-(−)-N-(2,3-Dihydro-7-nitro-benzo[1,4]dioxin-2-ylmethyl)-sulfamide], the “MES Activity (result in words)” value (CF-1 male albino mice; @ 100 mg/kg oral) is reported as “Inactive @ 100 mg/kg”.

For “Sulfamic acid, 6,7 dichloro-2,3-dihydro-benzo[1,4]dioxin-2-ylmethyl ester [Compound #27]”, the “MES Activity: number of mice with full body tonic extension prevented/total number of mice tested” value (CF-1 male albino mice; @ 4 h, 100 mg/kg oral) was 5/5 @ 4 h (100 mg/kg).
